Experiments:
[1] = tested on: fibroblasts during resting stage; test: Toxicity test during resting stage (MTT assay); type: cell-based; details: rat fibroblasts, confluent, 48 hours; for IC50 in the toxicity test during resting stage: HAP agents particle diameter 0.1 μm or less
From the text: (§1) A male mature rat was deeply anesthetized with ether, and disinfected by wiping carefully its tail with alcohol. The tail end part was cut by several centimeters, and the skin was removed from coccyx. Tendon was attached to the coccyx, and by culturing the same, fibroblasts can be recovered. Coccyx part was further cut finely with a sterilized pair of scissors, and adhered on a sterilized plastic plate with the cut surface down. After resting the plate for a while, DMEM supplemented with 10% FBS was added thereto. In approximately one week, fibroblasts germinated from the coccyx part, and proliferated in the plate. The fibroblasts collected from rat tail end were used for the following experiment.
Rat fibroblasts during proliferating stage were inoculated 2 times more than usual to a 96-well plate, that 100 μl of cell suspension at 2×10^4 cells/ml. Subsequently, it was cultured for 72 hours, in order to make cells in a confluent condition. After confirming with an inverted microscope that cells were in a complete confluent condition in each well, medium of each well was changed. Then, serially diluted test samples were added to the wells by aliquot of 10 μl, by the above-mentioned method. Culture was continued 48 hours after the addition, and subsequently, MTT assay was performed for PtCl4/HAP (particle diameter 0.1 μm or less), and H2PtCl6/HAP (particle diameter 0.1 μm or less), with similar procedures to those described in the above “toxicity test of PtCl4/HAP and H2PtCl6/HAP during proliferation stage”.

Kato-III = test: MTT assay, human cancer cells Kato-III; type: cell-based; details: for Platinum content calculated from IC50 of human cancer cells by MTT assay: KATO-III, IC50 converted to platinum concentration; for IC50 of human cancer cells by MTT assay: Kato-III, gastric cancer, HAP agents particle diameter 0.1 μm or less
Description: (§2) Effect of platinum tetrachloride/hydroxyapatite (PtCl4/HAP) and hexachloroplatinate/hydroxyapatite (H2PtCl6/HAP) against human cancer cells (MTT assay)
(§3) According to “in vitro toxicity test using MTT”, which is an ordinary test method, MTT assay was performed for PtCl4/HAP (particle diameter 0.1 μm or less), and H2PtCl6/HAP (particle diameter 0.1 μm or less) by using 19 types of human cancer cells. PtCl4/HAP and H2PtCl6/HAP were used by adjusting the final dispersion concentration to 1.0% in a dispersion liquid each containing 10% platinum as a theoretical value. For comparison, MTT assay was performed for PtCl4 and CDDP. PtCl4 was dissolved at an adequate dose, and then used after serial dilution with PBS (−). For CDDP, injection liquid from Malco was used.

A431 = test: MTT assay, human cancer cells A431; type: cell-based; details: for IC50 of human cancer cells by MTT assay: A431, squamous cell cancer, HAP agents particle diameter 0.1 μm or less; for Platinum content calculated from IC50 of human cancer cells by MTT assay: A431, IC50 converted to platinum concentration
Description: as §2, §3

YES4 = test: MTT assay, human cancer cells YES4; type: cell-based; details: for IC50 of human cancer cells by MTT assay: YES4, esophageal cancer, HAP agents particle diameter 0.1 μm or less; for Platinum content calculated from IC50 of human cancer cells by MTT assay: YES4, IC50 converted to platinum concentration
Description: as §2, §3

KB = test: MTT assay, human cancer cells KB; type: cell-based; details: for Platinum content calculated from IC50 of human cancer cells by MTT assay: IC50 converted to platinum concentration; for IC50 of human cancer cells by MTT assay: oral cancer, HAP agents particle diameter 0.1 μm or less
Description: as §2, §3

NUGC-4 = test: MTT assay, human cancer cells NUGC-4; type: cell-based; details: for IC50 of human cancer cells by MTT assay: NUGC-4, gastric cancer, HAP agents particle diameter 0.1 μm or less; for Platinum content calculated from IC50 of human cancer cells by MTT assay: NUGC-4, IC50 converted to platinum concentration
Description: as §2, §3

YES5 = test: MTT assay, human cancer cells YES5; type: cell-based; details: for IC50 of human cancer cells by MTT assay: YES5, esophageal cancer, HAP agents particle diameter 0.1 μm or less; for Platinum content calculated from IC50 of human cancer cells by MTT assay: YES5, IC50 converted to platinum concentration
Description: as §2, §3

[2] = tested on: fibroblasts at confluency; test: Microscopic observation of toxicity effect during resting stage; type: cell-based, rat; details: amount corresponding to 2 ppm of platinum content, fibroblasts at confluency, cultured for 48 hours
From the text: as §1
From the result of Example 7, 2 ppm which is a value of platinum content that kills 50% of fibroblasts in CDDP during resting stage was set as a standard. Then, CDDP, PtCl4/HAP, PtCl4 and HAP dispersion liquids in an amount corresponding to 2 ppm of platinum content, were added to the fibroblasts at confluency in a medium, and cultured for 48 hours.

SW837 = test: MTT assay, human cancer cells SW837; type: cell-based; details: for IC50 of human cancer cells by MTT assay: SW837, colon cancer, HAP agents particle diameter 0.1 μm or less; for Platinum content calculated from IC50 of human cancer cells by MTT assay: SW837, IC50 converted to platinum concentration
Description: as §2, §3

YES6 = test: MTT assay, human cancer cells YES6; type: cell-based; details: for IC50 of human cancer cells by MTT assay: YES6, esophageal cancer, HAP agents particle diameter 0.1 μm or less; for Platinum content calculated from IC50 of human cancer cells by MTT assay: YES6, IC50 converted to platinum concentration
Description: as §2, §3

YES2 = test: MTT assay, human cancer cells YES2; type: cell-based; details: for IC50 of human cancer cells by MTT assay: YES2, esophageal cancer, HAP agents particle diameter 0.1 μm or less; for Platinum content calculated from IC50 of human cancer cells by MTT assay: YES2, IC50 converted to platinum concentration
Description: as §2, §3

HSC3 = test: MTT assay, human cancer cells HSC3; type: cell-based; details: for IC50 of human cancer cells by MTT assay: HSC3, oral cancer, HAP agents particle diameter 0.1 μm or less; for Platinum content calculated from IC50 of human cancer cells by MTT assay: HSC3, IC50 converted to platinum concentration
Description: as §2, §3

HeLa = test: MTT assay, human cancer cells HeLa; type: cell-based; details: for Platinum content calculated from IC50 of human cancer cells by MTT assay: IC50 converted to platinum concentration; for IC50 of human cancer cells by MTT assay: cervical cancer, HAP agents particle diameter 0.1 μm or less
Description: as §2, §3

[3] = tested on: fibroblasts during proliferation stage; test: Toxicity test during proliferation stage (MTT assay); type: cell-based; details: rat fibroblasts, 48 hours; for IC50 in the toxicity test during proliferation stage: HAP agents particle diameter 0.1 μm or less
From the text: as §1
According to “in vitro toxicity test method using MTT” which is an ordinary test method, MTT assay was performed for PtCl4/HAP (particle diameter 0.1 μm or less) and H2PtCl6/HAP (particle diameter 0.1 μm or less). PtCl4/HAP and H2PtCl6/HAP were used by adjusting the final dispersion concentration to 1.0%, with a dispersion liquid each containing 10% platinum as a theoretical value. For comparison, MTT assay was performed for PtCl4 and CDDP. PtCl4 was dissolved at an adequate dose, and then used after serial dilution with PBS (−) For CDDP, injection liquid from Malco was used.
Fibroblasts during proliferation stage on the plate were peeled off with trypsin-EDTA, adjusted to 1×10^4/ml, and poured by aliquot of […] in a 96-well plate.
The 96-well plate added with fibroblasts was cultured for 24 hours, and samples serially diluted with PBS (−) were added by an amount of 10 μl. 48 hours after adding a test sample, 200 μl of PBS (−) was added to the 96-well plate, and approximately 1 min after, all the solution was removed. Immediately, 160 μl of DMSO was added to the plate. However, to the plates in which PtCl4/HAP and H2PtCl6/HAP were added, DMSO was added in an amount of 200 μl, respectively. Each plate was shaken for 5 min in a shaker, to dissolve completely the formed formazan. As it was believed that precipitation of PtCl4/HAP and H2PtCl6/HAP would suppress the colorization, the plates of PtCl4/HAP and H2PtCl6/HAP were rested for 5 min, and 160 μl of the supernatant was moved to another 96-well plate. Test samples for each cell and each concentration, the test was performed for 4 wells or more, and the optical density was measured by using a microplate at 550 nm.

Row | SMILES | Net Pt: platinum content wherein IC50 is converted to platinum concentration, resting stage [1] | IC50 in the toxicity test during resting stage [1] | Platinum content calculated from IC50 of human cancer cells by MTT assay (Kato-III) | IC50 of human cancer cells by MTT assay (Kato-III) | IC50 of human cancer cells by MTT assay (A431) | Platinum content calculated from IC50 of human cancer cells by MTT assay (A431) | IC50 of human cancer cells by MTT assay (YES4) | Platinum content calculated from IC50 of human cancer cells by MTT assay (YES4) | Platinum content calculated from IC50 of human cancer cells by MTT assay (KB) | IC50 of human cancer cells by MTT assay (KB) | IC50 of human cancer cells by MTT assay (NUGC-4) | Platinum content calculated from IC50 of human cancer cells by MTT assay (NUGC-4) | IC50 of human cancer cells by MTT assay (YES5) | Platinum content calculated from IC50 of human cancer cells by MTT assay (YES5) | Microscopic observation of cell form of cultured fibroblasts [2] | IC50 of human cancer cells by MTT assay (SW837) | Platinum content calculated from IC50 of human cancer cells by MTT assay (SW837) | IC50 of human cancer cells by MTT assay (YES6) | Platinum content calculated from IC50 of human cancer cells by MTT assay (YES6) | IC50 of human cancer cells by MTT assay (YES2) | also measured
1 | [NH2][Pt]([NH2])([Cl])[Cl] [CDDP, cisplatin] | 1.9 ppm | 2.9 ppm | 1.8 ppm | 2.7 ppm | 5.7 ppm | 3.7 ppm | 1.3 ppm | 0.8 ppm | 4.1 ppm | 6.3 ppm | 15.6 ppm | 10.1 ppm | 10.0 ppm | 6.5 ppm | most of the cells had a round form | 40.2 ppm | 26.1 ppm | 0.8 ppm | 0.5 ppm | 1.7 ppm | Platinum content calculated from IC50 of human cancer cells by MTT assay (YES2): 1.1 ppm; IC50 of human cancer cells by MTT assay (HSC3): 2.9 ppm; Platinum content calculated from IC50 of human cancer cells by MTT assay (HSC3): 1.9 ppm; Platinum content calculated from IC50 of human cancer cells by MTT assay (HeLa): 1.4 ppm; IC50 of human cancer cells by MTT assay (HeLa): 2.1 ppm; Net Pt: platinum content wherein IC50 is converted to platinum concentration, proliferation stage [3]: 0.3 ppm; IC50 in the toxicity test during proliferation stage [3]: 0.5 ppm
2 | [Cl][Pt]([Cl])([Cl])[Cl] [PtCl4, platinum tetrachloride] | 13.8 ppm | 23.8 ppm | 3.4 ppm | 5.8 ppm | 9.5 ppm | 5.5 ppm | 14.6 ppm | 8.5 ppm | 8.7 ppm | 15.0 ppm | 7.7 ppm | 4.5 ppm | 20.1 ppm | 11.6 ppm | many cells wherein spindle form was deformed, or having a round form, were observed | 32.9 ppm | 19.1 ppm | 11.9 ppm | 6.9 ppm | 35.8 ppm | Platinum content calculated from IC50 of human cancer cells by MTT assay (YES2): 20.7 ppm; IC50 of human cancer cells by MTT assay (HSC3): 9.6 ppm; Platinum content calculated from IC50 of human cancer cells by MTT assay (HSC3): 5.5 ppm; Platinum content calculated from IC50 of human cancer cells by MTT assay (HeLa): 4.0 ppm; IC50 of human cancer cells by MTT assay (HeLa): 7.0 ppm; Net Pt: platinum content wherein IC50 is converted to platinum concentration, proliferation stage [3]: 2.3 ppm; IC50 in the toxicity test during proliferation stage [3]: 4.0 ppm
